Legend:
[1] = Solubility measurement in chloroform (saturated solution); format: physicochemical; details: mass percent concentration of saturated chloroform solution
Method: Solubility was measured by using chloroform as solvent.

[2] = CV (cyclic voltammetry) measurement in dichloromethane; format: physicochemical; details: n-BuN4PF6 0.1 M, Pt electrodes, silver-silver chloride reference, 100 mV/sec
Method: CV measurement was conducted by using dichloromethane as solvent, tetrabutylammonium hexafluorophosphate (n-BuN4PF6, 0.1 M) as a supporting electrolyte, platinum wires as working electrodes and counter electrodes, and a silver-silver chloride electrodes as reference electrodes, and by sweeping the electric potential at a rate of 100 mV/sec. In all Compounds 101, 110, 112, 136, 201, 210, 212, 214, and 236, two pairs of oxidation-reduction waves were observed.

SMILES | Solubility in chloroform [1] | first half-wave reduction potential [2] | second half-wave reduction potential [2]
CCCCCCCCCCCCc1cc2c(=C(C#N)C#N)cc3c(cc(=C(C#N)C#N)c4cc(CCCCCCCCCCCC)sc43)c2s1 [Compound 112] | 0.22 w/w % | 0.06 V | −0.28 V
CCCCCCCCCCCCCCCCc1cc2c(s1)c(=C(C#N)C#N)cc1c3cc(CCCCCCCCCCCCCCCC)sc3c(=C(C#N)C#N)cc21 [Compound 214] | – | 0.06 V | −0.28 V
CC(C)[Si](c1cc2c(=C(C#N)C#N)cc3c(cc(=C(C#N)C#N)c4cc([Si](C(C)C)(C(C)C)C(C)C)sc43)c2s1)(C(C)C)C(C)C [Compound 136] | – | 0.06 V | −0.28 V
N#CC(C#N)=c1cc2c3ccsc3c(=C(C#N)C#N)cc2c2ccsc12 [Compound 201] | – | 0.06 V | −0.28 V

Second part, the compound after the results:

Solubility in chloroform [1] | first half-wave reduction potential [2] | second half-wave reduction potential [2] | SMILES
0.52 w/w % | 0.06 V | −0.28 V | CCCCCCCCc1cc2c(=C(C#N)C#N)cc3c(cc(=C(C#N)C#N)c4cc(CCCCCCCC)sc43)c2s1 [Compound 110]
– | 0.06 V | −0.28 V | CCCCCCCCCCCCc1cc2c(s1)c(=C(C#N)C#N)cc1c3cc(CCCCCCCCCCCC)sc3c(=C(C#N)C#N)cc21 [Compound 212]
– | 0.06 V | −0.28 V | CCCCCCCCc1cc2c(s1)c(=C(C#N)C#N)cc1c3cc(CCCCCCCC)sc3c(=C(C#N)C#N)cc21 [Compound 210]

Source: patent publication US9564604B2, “Fused polycyclic aromatic compounds, organic semiconductor material and thin film including the same, and method for producing an organic semiconductor device” (Nippon Kayaku Kabushiki Kaisha, priority 2012, dated 2017)
